Laboratory results from patent publication US8568986B2, “Method of selecting an agent that improves periodontal disease” (Kao Corporation, priority 2009, dated 2013).

What was measured:
[1] = system: Vibrio harveyi BB170 strain (AI-2 reporter bacterium); assay: AI-2 activity inhibitory effect, photogenesis intensity of AI-2 reporter bacterium after addition of DPD; type: cell-based; conditions: relative to control with only DPD added (=100); 10 min preincubation, 4 h culture at 30° C
Experimental: The method of screening an improving agent or preventive agent for periodontal disease of the present invention containing mixing a bacterium having an autoinducer-2-mediated quorum sensing system with a test drug and selecting a test drug having an autoinducer-2 activity inhibitory effect as an improving agent or preventive agent for periodontal disease. For example, a Vibrio harveyi BB 170 strain is prepared in a culture medium at 1000- to 10000-fold dilution (preferably 4000- to 5000-fold) and preincubated with a test compound solution at room temperature for 1 to 30 minutes (preferably for 10 minutes). Then, AI-2 was added to the resultant solution, which was subjected to aerobic shaking culture at 30±5° C. Two (2) to six (6) hours later (preferably four (4) hours later), the photogenesis intensity is measured with a chemiluminescence analyzer. The final concentration of AI-2 is from 0.001 to 100 μM (preferably 10 μM). The final concentration of the test compound solutions is from 0.0001 to 0.1% or from 1 to 100 μM. Each concentration is not limited thereto. The photogenesis intensity when a control obtained by adding only the AI-2 is mixed with the test compound solution is measured as a relative value to the photogenesis intensity of control so that the AI-2 activity inhibitory effect of the test compound can be measured. The bacterium having an autoinducer-2-mediated quorum sensing system is not particularly limited. A reporter bacterium which recognizes the autoinducer-2 thereby emitting light is preferred and dental bacteria and periodontal pathogens can also be used. Further, the bacterium having an autoinducer-2-mediated quorum sensing system which is collected from the oral cavity of a subject can also be used as a specimen.
A Vibrio harveyi BB170 strain (cultured in an AB medium at 30° C. overnight) was used as an AI-2 reporter bacterium and it was 4500-fold diluted with an AB culture medium to prepare a reporter bacterium liquid. A reporter bacterium liquid was mixed with each of the test drugs, which was preincubated at room temperature for 10 minutes, followed by addition of DPD and aerobic shaking culture at 30° C. Four (4) hours later, the photogenesis intensity was measured with the chemiluminescence analyzer (LB940 type, manufactured by Berthold Japan co. ltd.). AI-2 was quantified from the measured photogenesis intensity in the same manner as described in Example 1.
The amount of AI-2 was a relative value to the amount of DPD of the control (the amount of AI-2) when one obtained by adding only the DPD without adding the test drugs was used as a control.

syrian hamsters = assay: Alveolar bone resorption in floss-tied mandibular first molars of syrian hamsters; type: in vivo; conditions: syrian hamster; for Alveolar bone resorption depth (mm): 200 μL of 10 μM solution dropwise to floss-tied first molars twice a day for two weeks, control 2.87; for absorption of the alveolar bone: added dropwise to the oral cavity for two weeks
Experimental: The mandibule of syrian hamsters (three males, 7 weeks old) was extracted under anesthesia and a photograph was taken under the stereoscopic microscope. An evaluation site is the lingual surface of extraction mandibule. The obtained photographs were subjected to image analysis and a vertical distance from the first molar mesial cusp tip to the alveolar tip was measured.
Floss was tied around the left and right mandibular first molar teeth of other syrian hamsters (three males, 7 weeks old). From the next day on, 200 μL of a PBS solution containing 1% DMSO (concentration: 10 μM) of Compound 1 or 2 above was added dropwise to the same tied sites twice a day for two weeks and they were bred.
After the end of breeding, the mandibule was extracted under anesthesia and photographs were taken under the stereoscopic microscope. An evaluation site is the lingual surface of extraction mandibule and the taken photographs were subjected to image analysis. […] a vertical distance from the first molar mesial cusp tip to the alveolar tip was measured.
The alveolar bone resorption depth (a value before addition is subtracted from a value after addition for two weeks) was measured from the vertical distance from the first molar mesial cusp tip to the alveolar tip before addition of the test drug and after addition of the test drug for two weeks.

| SMILES | AI-2 amount (relative value) [1] | Alveolar bone resorption depth (mm) (syrian hamsters) | absorption of the alveolar bone (syrian hamsters) |
| --- | --- | --- | --- |
| COc1ccc(C2OC(=O)C=C2Br)cc1 (centres unmarked) [Compound 1, 4-bromo-5-(4-methoxyphenyl)-2(5H)-furanone] | 29.6 | 2.50 mm | suppressed |
| O=C1OC(O)C(Br)=C1Br (centres unmarked) [Compound 2, 3,4-dibromo-5-hydroxy-2(5H)-furanone] | 0 | 2.62 mm | suppressed |
| COc1ccc(C2(OC)OC(=O)C=C2Br)cc1 (centres unmarked) [Compound 3, 4-bromo-5-methoxy-5-(4-methoxyphenyl)-2(5H)-furanone] | 62.5 |  |  |
| COc1ccc(C2(Oc3ccc(C(=O)O)cc3)OC(=O)C=C2Br)cc1 (centres unmarked) [Compound 4, 4-{[3-bromo-2-(4-methoxyphenyl)-5-oxo-2,5-dihydro-2-furanyl]oxy}benzoate] | 76.0 |  |  |
| CC1=C(O)C(=O)C(C)O1 (centres unmarked) [Compound 5, 4-hydroxy-2,5-dimethyl-3(2H)-furanone, reference compound] | 77.0 |  |  |
| COC1(c2ccccc2)OC=C(c2ccccc2)C1=O (centres unmarked) [Compound 6, 2-methoxy-2,4-diphenyl-3(2H)-furanone, reference compound] | 88.9 |  |  |
| CCCCCC1=CCCC1=O [Compound 7, 2-pentyl-2-cyclopentene-1-one, reference compound] | 63.4 |  |  |
